According to ChEMBL document CHEMBL1137308 (J Med Chem, 2006):
Converted amounts (≈) assume the structure as drawn. The source made the active and inactive calls. The calls are words filed in the database; no cut-off is given here.

Experiments:
Staphylococcus aureus [1] = experiment: Antibacterial activity against Staphylococcus aureus SA2554; format: functional
Staphylococcus aureus [2] = experiment: Antibacterial activity against Staphylococcus aureus SA2558; format: functional
Staphylococcus aureus [3] = experiment: Antibacterial activity against methicillin-resistant Staphylococcus aureus SA1417; format: functional
Staphylococcus aureus [4] = experiment: Antibacterial activity against ciprofolxacin-resistant Staphylococcus aureus SA2017; format: functional
Providencia rettgeri = experiment: Antibacterial activity against Providencia rettgeri PR9; format: functional
Pseudomonas aeruginosa = experiment: Antibacterial activity against Pseudomonas aeruginosa PA7; format: functional
Haemophilus influenzae = experiment: Antibacterial activity against Haemophilus influenzae HI3542; format: functional
Moraxella catarrhalis = experiment: Antibacterial activity against Moraxella catarrhalis BC-3531; format: functional
Staphylococcus aureus [5] = experiment: Antibacterial activity against Staphylococcus aureus SA1417; format: functional
Staphylococcus aureus [6] = experiment: Antibacterial activity against Staphylococcus aureus UC-76 SA-1; format: functional
Enterococcus faecalis [7] = experiment: Antibacterial activity against Enterococcus faecalis MGH2 EF1-1; format: functional
Enterococcus faecalis [8] = experiment: Antibacterial activity against Enterococcus faecalis EF1-3524; format: functional
Enterococcus faecium = experiment: Antibacterial activity against vancomycin-resistant Enterococcus faecium EF4-3489; format: functional
Streptococcus pneumoniae [9] = experiment: Antibacterial activity against Streptococcus pneumonia SVI SP3; format: functional
Streptococcus pneumoniae [10] = experiment: Antibacterial activity against quinolone-resistant Streptococcus pneumonia SP3763; format: functional
Streptococcus pyogenes [11] = experiment: Antibacterial activity against Streptococcus pyogenes C203 SP1-1; format: functional
Klebsiella pneumoniae [12] = experiment: Antibacterial activity against Klebsiella pneumonia KP2; format: functional
Klebsiella pneumoniae [13] = experiment: Antibacterial activity against Klebsiella pneumonia ESBL KP3729; format: functional
Staphylococcus aureus [14] = experiment: Antibacterial activity against Staphylococcus aureus SA2552; format: functional
Escherichia coli [15] = experiment: Inhibition of Escherichia coli DNA synthesis; format: functional, organism-based
Escherichia coli [16] = experiment: Antibacterial activity against Escherichia coli EC2026; format: functional
Escherichia coli [17] = experiment: Antibacterial activity against Escherichia coli EC2549; format: functional
Streptococcus pyogenes [18] = experiment: Antibacterial activity against Streptococcus pyogenes […]; format: functional
Enterococcus faecalis [19] = experiment: Antibacterial activity against Enterococcus faecalis […]; format: functional
Streptococcus pyogenes [20] = experiment: Activity against po dosed mouse infected with Streptococcus pyogenes; format: functional; conditions: read-out: PD50
Enterococcus faecalis [21] = experiment: Activity against po dosed mouse infected with Enterococcus faecalis; format: functional; conditions: read-out: PD50
Streptococcus pyogenes [22] = experiment: Activity against sc dosed mouse infected with Streptococcus pyogenes; format: functional; conditions: read-out: PD50
Enterococcus faecalis [23] = experiment: Activity against sc dosed mouse infected with Enterococcus faecalis; format: functional; conditions: read-out: PD50
[24] = biological target: T1, DNA gyrase (Escherichia coli) (UniProt P0AES6+P0AES4); experiment: Ability to inhibit DNA supercoiling activity of Escherichia coli gyrase; format: functional
[25] = biological target: T1, DNA gyrase (Escherichia coli); experiment: Displacement of [14C]ciprofloxacin from Escherichia coli gyrase; format: protein-complex assay
DNA gyrase = DNA gyrase (Escherichia coli, UniProt P0AES4+P0AES6); experiment: Inhibition of Escherichia coli gyrase; format: functional
Escherichia coli [26] = experiment: Antibacterial activity against Escherichia coli EC1-10; format: functional

| SMILES | MIC (Staphylococcus aureus [1]) | MIC (Staphylococcus aureus [2]) | MIC (Staphylococcus aureus [3]) | MIC (Staphylococcus aureus [4]) | MIC (Providencia rettgeri) | MIC (Pseudomonas aeruginosa) | MIC (Haemophilus influenzae) | MIC (Moraxella catarrhalis) | MIC (Staphylococcus aureus [5]) | MIC (Staphylococcus aureus [6]) | MIC (Enterococcus faecalis [7]) | MIC (Enterococcus faecalis [8]) | MIC (Enterococcus faecium) | MIC (Streptococcus pneumoniae [9]) | MIC (Streptococcus pneumoniae [10]) | MIC (Streptococcus pyogenes [11]) | MIC (Klebsiella pneumoniae [12]) | MIC (Klebsiella pneumoniae [13]) | MIC (Staphylococcus aureus [14]) | MIC (Escherichia coli [16]) | further results |
| --- | --- | --- | --- | --- | --- | --- | --- | --- | --- | --- | --- | --- | --- | --- | --- | --- | --- | --- | --- | --- | --- |
| O=C(O)c1cn(C2CC2)c2cc(N3CCNCC3)c(F)cc2c1=O [CIPROFLOXACIN] | 2 µg/mL (≈ 6.04 µM) | 64 µg/mL (≈ 193 µM) | 0.5 µg/mL (≈ 1.51 µM) | > 64 µg/mL | 0.06 µg/mL (≈ 0.181 µM) | 0.06 µg/mL (≈ 0.181 µM) | 0.008 µg/mL (≈ 0.0241 µM) | 0.03 µg/mL (≈ 0.0905 µM) | 0.5 µg/mL (≈ 1.51 µM) | 0.13 µg/mL (≈ 0.392 µM) | 0.5 µg/mL (≈ 1.51 µM) | 32 µg/mL (≈ 96.6 µM) | > 64 µg/mL | 1 µg/mL (≈ 3.02 µM) | 64 µg/mL (≈ 193 µM) | 0.5 µg/mL (≈ 1.51 µM) |  |  |  |  |  |
| C[C@H]1COc2c(N3CCN(C)CC3)c(F)cc3c(=O)c(C(=O)O)cn1c23.C[C@H]1COc2c(N3CCN(C)CC3)c(F)cc3c(=O)c(C(=O)O)cn1c23.O [LEVOFLOXACIN] | 0.5 µg/mL | 8 µg/mL | 0.25 µg/mL | 8 µg/mL | 0.5 µg/mL | 0.5 µg/mL | 0.008 µg/mL | 0.03 µg/mL | 0.25 µg/mL | 0.125 µg/mL | 1 µg/mL | 32 µg/mL | 64 µg/mL |  |  | 0.5 µg/mL | 0.03 µg/mL | 8 µg/mL | 0.25 µg/mL |  |  |
| Cc1c(N2CC[C@@H]([C@H](C)N)C2)c(F)cc2c(=O)n(N)c(=O)n(C3CC3)c12 | 0.13 µg/mL (≈ 0.36 µM) | 0.25 µg/mL (≈ 0.692 µM) | 0.125 µg/mL (≈ 0.346 µM) | 0.5 µg/mL (≈ 1.38 µM) | 2 µg/mL (≈ 5.53 µM) | 4 µg/mL (≈ 11.1 µM) | 0.125 µg/mL (≈ 0.346 µM) | 0.25 µg/mL (≈ 0.692 µM) | 0.125 µg/mL (≈ 0.346 µM) | 0.06 µg/mL (≈ 0.166 µM) | 0.125 µg/mL (≈ 0.346 µM) | 0.25 µg/mL (≈ 0.692 µM) | 1 µg/mL (≈ 2.77 µM) | 0.015 µg/mL (≈ 0.0415 µM) | 0.06 µg/mL (≈ 0.166 µM) | 0.015 µg/mL (≈ 0.0415 µM) | 1 µg/mL (≈ 2.77 µM) | 2 µg/mL (≈ 5.53 µM) | 0.25 µg/mL (≈ 0.692 µM) | 1 µg/mL (≈ 2.77 µM) | Activity (Escherichia coli [15]): Active; MIC (Escherichia coli [17]): 0.03 µg/mL (≈ 0.083 µM); MIC (Streptococcus pyogenes [18]): 0.015 µg/mL (≈ 0.0415 µM); MIC (Enterococcus faecalis [19]): 0.06 µg/mL (≈ 0.166 µM); ED50 (Streptococcus pyogenes [20]): 1.4 mg/kg; ED50 (Enterococcus faecalis [21]): 19 mg/kg; ED50 (Streptococcus pyogenes [22]): 0.27 mg/kg; ED50 (Enterococcus faecalis [23]): 4.2 mg/kg; Activity [24]: Active; Activity [25]: Active; IC50 (DNA gyrase): 200 nM; MIC (Escherichia coli [26]): 1 µg/mL (≈ 2.77 µM) |
| C[C@H]1NCc2cc(-c3ccc4c(=O)c(C(=O)O)cn(C5CC5)c4c3OC(F)F)ccc21 [GARENOXACIN] | 0.03 µg/mL (≈ 0.0704 µM) | 2 µg/mL (≈ 4.69 µM) | 0.03 µg/mL (≈ 0.0704 µM) | 2 µg/mL (≈ 4.69 µM) | 0.06 µg/mL (≈ 0.141 µM) | 1 µg/mL (≈ 2.35 µM) | 0.015 µg/mL (≈ 0.0352 µM) | 0.03 µg/mL (≈ 0.0704 µM) | 0.06 µg/mL (≈ 0.141 µM) | 0.015 µg/mL (≈ 0.0352 µM) | 0.125 µg/mL (≈ 0.293 µM) | 4 µg/mL (≈ 9.38 µM) | 8 µg/mL (≈ 18.8 µM) | 0.03 µg/mL (≈ 0.0704 µM) | 1 µg/mL (≈ 2.35 µM) | 0.06 µg/mL (≈ 0.141 µM) | 0.06 µg/mL (≈ 0.141 µM) | 32 µg/mL (≈ 75 µM) | 0.03 µg/mL (≈ 0.0704 µM) | 0.03 µg/mL (≈ 0.0704 µM) | MIC (Escherichia coli [17]): 0.008 µg/mL (≈ 0.0188 µM); MIC (Escherichia coli [26]): 0.25 µg/mL (≈ 0.586 µM) |
| COc1c(N2CCNC(C)C2)c(F)cc2c(=O)c(C(=O)O)cn(C3CC3)c12 (stereo not drawn) [GATIFLOXACIN] | 0.125 µg/mL (≈ 0.333 µM) | 4 µg/mL (≈ 10.7 µM) | 0.125 µg/mL (≈ 0.333 µM) | 8 µg/mL (≈ 21.3 µM) | 0.5 µg/mL (≈ 1.33 µM) | 0.5 µg/mL (≈ 1.33 µM) | 0.015 µg/mL (≈ 0.04 µM) | 0.03 µg/mL (≈ 0.0799 µM) | 0.125 µg/mL (≈ 0.333 µM) | 0.03 µg/mL (≈ 0.0799 µM) | 0.5 µg/mL (≈ 1.33 µM) | 16 µg/mL (≈ 42.6 µM) | 32 µg/mL (≈ 85.2 µM) | 0.125 µg/mL (≈ 0.333 µM) | 4 µg/mL (≈ 10.7 µM) | 0.5 µg/mL (≈ 1.33 µM) | 0.06 µg/mL (≈ 0.16 µM) | 8 µg/mL (≈ 21.3 µM) | 0.125 µg/mL (≈ 0.333 µM) | < 0.06 µg/mL | MIC (Escherichia coli [17]): < 0.06 µg/mL; MIC (Escherichia coli [26]): 0.06 µg/mL (≈ 0.16 µM) |
| COc1c(N2CC[C@@H]([C@H](C)N)C2)c(F)cc2c(=O)n(N)c(=O)n(C3CC3)c12 | 0.25 µg/mL (≈ 0.662 µM) | 0.5 µg/mL (≈ 1.32 µM) | 0.25 µg/mL (≈ 0.662 µM) | 1 µg/mL (≈ 2.65 µM) | 4 µg/mL (≈ 10.6 µM) | 8 µg/mL (≈ 21.2 µM) | 0.25 µg/mL (≈ 0.662 µM) | 1 µg/mL (≈ 2.65 µM) | 0.5 µg/mL (≈ 1.32 µM) | 0.13 µg/mL (≈ 0.344 µM) | 0.13 µg/mL (≈ 0.344 µM) | 0.25 µg/mL (≈ 0.662 µM) | 1 µg/mL (≈ 2.65 µM) | 0.03 µg/mL (≈ 0.0795 µM) | 0.06 µg/mL (≈ 0.159 µM) | 0.03 µg/mL (≈ 0.0795 µM) | 8 µg/mL (≈ 21.2 µM) | 8 µg/mL (≈ 21.2 µM) | 0.5 µg/mL (≈ 1.32 µM) | 4 µg/mL (≈ 10.6 µM) | MIC (Escherichia coli [17]): 0.13 µg/mL (≈ 0.344 µM); MIC (Streptococcus pyogenes [18]): 0.03 µg/mL (≈ 0.0795 µM); MIC (Enterococcus faecalis [19]): 0.25 µg/mL (≈ 0.662 µM); ED50 (Streptococcus pyogenes [20]): 3.1 mg/kg; ED50 (Enterococcus faecalis [21]): 38 mg/kg; ED50 (Streptococcus pyogenes [22]): 1.2 mg/kg; ED50 (Enterococcus faecalis [23]): 11 mg/kg; IC50 (DNA gyrase): 600 nM; MIC (Escherichia coli [26]): 2 µg/mL (≈ 5.3 µM) |
